Source: patent publication US11352604B2, “Method of making cardiomyocytes from human pluripotent cells” (Wisconsin Alumni Research Foundation, priority 2016, dated 2022)

Assays:
Type in all cases: cell-based, human
[1] = test system: Jag1; assay: Flow cytometry of day 5 progenitors for Jag1 and Notch2
Text: Flow cytometry for live cell surface antigens was done on dissociated cells of the 19-9-11 iPS cell line with Thy1 biotin (1:200 Biolegend, with Life Technologies streptavidin direct conjugate at 1:1000) and SIRPα (1:200, Biolegend) in K20 and then analyzed at the UWCCC Flow Cytometry Laboratory using a BD LSRII Fortessa flow cytometer. For progenitor flow experiments, cells were dissociated as above for progenitor dissociation, centrifuged at 200×g, subjected to FACS to concentrate cells, and resuspended in 100 μL, of K2 media+rockI/Jag1 PE, BD Biosciences (1:20); Notch2 APC R&D Biosystems (1:10) and analyzed on either a BD FACSariaII cell sorter or BD LSRII Fortessa flow cytometer.

[2] = test system: hPSC-CMs; assay: Seahorse oxygen consumption rate; conditions: cardiomyocytes from treated vs untreated progenitors
Description: After hPSC-CM dissociation of day 40-70 lactate-purified hPSC-CMs from the H9 cTnT-GFP reporter cell line, 25,000 cells per well were replated into Synthemax®-coated wells of Seahorse XF96 V3 PS cell culture plates (Agilent). Plates were analyzed for basal and maximal oxygen consumption rate with a Seahorse XF cell mito stress kit according to the manufacturer's instructions (Agilent) using concentrations of 1 μM oligomycin, 2 μM FCCP, and 0.5 μM Rotenone/antimycin A. Purity was determined by dissociating seahorse wells after analysis and doing live cell flow cytometry for cTnT-GFP. To directly compare data between plate runs/biological replicates, the fold change between hPSC-CMs from pI:C− and pI:C+ progenitors was computed for each sample's maximal and basal oxygen consumption rate normalized to total protein estimated after cell lysis in EBC buffer. Log2 of the fold changes was tested for significance in a one-sample t test against a null hypothesis of 0.

[3] = test system: day 5 cardiac progenitors; assay: RNA-seq differential gene expression, day 5 pI:C-primed vs untreated cardiac progenitors
Description: Day-5 cells from d3-5 untreated, TGFβ-treated, and pI:C-treated progenitors from the 19-9-11 iPS cell line were separately prepared as above for cell dissociation of progenitors from three different wells of each condition (for 9 total sequencing samples) and isolated as described above for RNA for RT-qPCR. rRNA-reduced Illumina TruSeq™ Stranded total RNA libraries were prepared and 1×100 bp single end sequencing was performed. To map and annotate RNA-seg data, STAR and HTSeq were used, respectively (Anders et al., 2015; Dobin and Gingeras, 2015). Annotated transcript counts were further processed with DeSEq2 for differential gene expression analysis (Love et al., 2014). Gene neighborhood analysis was performed with NEST (Jiang et al., 2015).

[4] = day 5 progenitors, out of ~10,500 genes detected

Substance: polyinosinic-polycytidylic acid [pI:C]
- number of Jag1 positive cells and median fluorescence signal-to-noise [1]: increased
- basal oxygen consumption rate [2]: approximately 2 fold
- maximal oxygen consumption rate [2]: approximately 2 fold
- number of genes significantly downregulated [3, 4]: 912 genes
- number of genes significantly upregulated [3, 4]: 514 genes
- log2FoldChange ([3]; gene ACTN3): 0.6193
- log2FoldChange ([3]; gene ADAMTS18): −1.365
- log2FoldChange ([3]; gene ADCY5): 0.9552
- log2FoldChange ([3]; gene ADCY8): 0.6342
- log2FoldChange ([3]; gene ALDH1A2): 1.067
- log2FoldChange ([3]; gene ANKRD18A): 1.148
- log2FoldChange ([3]; gene AQP3): 0.8778
- log2FoldChange ([3]; gene ARL15): 0.6459
- log2FoldChange ([3]; gene ARSI): 0.6043
- log2FoldChange ([3]; gene ATP8B4): −1.545
- log2FoldChange ([3]; gene BAI2): 0.6046
- log2FoldChange ([3]; gene C20orf103): 0.9674
- log2FoldChange ([3]; gene CD82): 1.288
- log2FoldChange ([3]; gene CDC25B): 0.6173
- log2FoldChange ([3]; gene CHRNA3): 0.6865
- log2FoldChange ([3]; gene CHRNB4): 0.6085
- log2FoldChange ([3]; gene CNTFR): 0.8038
- log2FoldChange ([3]; gene COL2A1): 0.9666
- log2FoldChange ([3]; gene COL19A1): −0.827
- log2FoldChange ([3]; gene CRNDE): 0.7347
- log2FoldChange ([3]; gene CTNNA2): 0.8199
- log2FoldChange ([3]; gene DKFZp686D0853): 0.782
- log2FoldChange ([3]; gene DKK1): 0.8084
- log2FoldChange ([3]; gene DLL3): 0.7285
- log2FoldChange ([3]; gene DPYSL5): 0.6254
- log2FoldChange ([3]; gene DUSP4): −1.302
- log2FoldChange ([3]; gene EPHB3): 0.6122
- log2FoldChange ([3]; gene ERBB4): −0.836
- log2FoldChange ([3]; gene EYA1): 0.927
- log2FoldChange ([3]; gene FAM98B): 1.008
- log2FoldChange ([3]; gene FHDC1): 0.6831
- log2FoldChange ([3]; gene FOXC1): 0.9077
- log2FoldChange ([3]; gene FOXC2): 0.8203
- log2FoldChange ([3]; gene FOXL1): 1.223
- log2FoldChange ([3]; gene GJA4): −0.828
- log2FoldChange ([3]; gene GPC3): 0.6647
- log2FoldChange ([3]; gene GPR55): −1.691
- log2FoldChange ([3]; gene HAND1): −1.326
- log2FoldChange ([3]; gene HAPLN3): 0.8468
- log2FoldChange ([3]; gene HEY1): 0.6706
- log2FoldChange ([3]; gene HLA-DQA2): 0.881
- log2FoldChange ([3]; gene IFI16): 1.021
- log2FoldChange ([3]; gene IP6K3): 0.6953
- log2FoldChange ([3]; gene IRX3): 0.7452
- log2FoldChange ([3]; gene IRX5): 0.9174
- log2FoldChange ([3]; gene JAG1): 1.453
- log2FoldChange ([3]; gene KCNH7): 0.8627
- log2FoldChange ([3]; gene KCNJ16): −1.26
- log2FoldChange ([3]; gene KIAA0319): 0.6142
- log2FoldChange ([3]; gene KIAA1324): 0.914
- log2FoldChange ([3]; gene LIX1): 0.6361
- log2FoldChange ([3]; gene MMP16): 0.9772
- log2FoldChange ([3]; gene MN1): 0.8939
- log2FoldChange ([3]; gene MT1X): 0.7867
- log2FoldChange ([3]; gene MXRA5): −1.313
- log2FoldChange ([3]; gene MYO7A): 0.815
- log2FoldChange ([3]; gene NEFL): 0.6647
- log2FoldChange ([3]; gene NELL2): 0.6696
- log2FoldChange ([3]; gene NETO1): 0.918
- log2FoldChange ([3]; gene NFKBIZ): 0.7246
- log2FoldChange ([3]; gene NKX3-1): 0.9735
- log2FoldChange ([3]; gene NPY): 1.254
- log2FoldChange ([3]; gene NR2F1): 0.7356
- log2FoldChange ([3]; gene NRCAM): −1.533
- log2FoldChange ([3]; gene NRXN1): 0.724
- log2FoldChange ([3]; gene PANX2): 1.107
- log2FoldChange ([3]; gene PAPPA): 0.9808
- log2FoldChange ([3]; gene PDE1B): 0.9995
- log2FoldChange ([3]; gene PDGFD): 0.6619
- log2FoldChange ([3]; gene PPFIA2): 0.8189
- log2FoldChange ([3]; gene PPFIBP2): −0.835
- log2FoldChange ([3]; gene PPM1J): 0.6364
- log2FoldChange ([3]; gene PPP1R1A): 1.171
- log2FoldChange ([3]; gene PRSS12): 0.817
- log2FoldChange ([3]; gene PRSS23): 0.9765
- log2FoldChange ([3]; gene PTN): 0.7536
- log2FoldChange ([3]; gene PTPN12): 0.7631
- log2FoldChange ([3]; gene RARB): 0.9291
- log2FoldChange ([3]; gene RASSF10): −1.321
- log2FoldChange ([3]; gene RERG): 0.6913
- log2FoldChange ([3]; gene RHBDL3): 0.7861
- log2FoldChange ([3]; gene RND3): 0.6053
- log2FoldChange ([3]; gene ROBO3): 0.6174
- log2FoldChange ([3]; gene SCGB1A1): 0.7028
- log2FoldChange ([3]; gene SIX1): 1.397
- log2FoldChange ([3]; gene SLC24A3): 0.7397
- log2FoldChange ([3]; gene SLC28A2): −1.472
- log2FoldChange ([3]; gene SPOCK3): 0.6961
- log2FoldChange ([3]; gene STAR): 0.7806
- log2FoldChange ([3]; gene SYT4): 0.9363
- log2FoldChange ([3]; gene SYT6): 0.6752
- log2FoldChange ([3]; gene TBX3): −1.289
- log2FoldChange ([3]; gene TMEM132E): 0.6361
- log2FoldChange ([3]; gene TMOD1): −1.407
- log2FoldChange ([3]; gene TMPRSS13): 0.6086
- log2FoldChange ([3]; gene TOX): 0.6437
- log2FoldChange ([3]; gene TRPA1): −1.599
- log2FoldChange ([3]; gene TXNIP): 0.805
- log2FoldChange ([3]; gene USP27X): 0.6946
- log2FoldChange ([3]; gene VEPH1): −1.26
